This is an account of results in PMC11268479, “Delineation of the complete reaction cycle of a natural Diels–Alderase” (Chemical Science, 2024).

Structures are written as SMILES. Values joined by “and” are separate entries in the source; they are usually repeats but may differ in a detail not shown here. Equal values may be shown once. Read-outs that look alike come from different tables or passages of the source.

The target in series [1] is T1, AbyU (Micromonospora maris, UniProt Z9P124SIT8, F95Y, form not given). As to the kind of experiment: Single turnover stopped-flow kinetics of the AbyU catalysed conversion of 5 to 6 (excess enzyme, absorbance 325 nm). Type of series: biochemical, Micromonospora maris AB-18-032. The text has this:
(§1) To further investigate the AbyU catalysed reaction stopped-flow kinetic studies were undertaken employing substrate 5. […] This feature is lost upon cyclisation and thus constitutes a viable spectrophotometric probe to monitor the AbyU catalysed conversion of substrate 5 to product 6 (Fig. 1b). […] We assessed the quality of the fit from the plotted residuals.
(§2) As the concentration of 5 increases, a concomitant decrease in the rate constants kobs1 and kobs2 is observed. […] These different conformational populations cannot be individually resolved using ensemble kinetic measurements unless their rate constants differ by at least an order of magnitude, therefore, the observed rate constant reflects average behaviour. The relative equilibrium saturation constants observed for two different binding conformations can be obtained by examining the dependence of kobs2 on (Fig. 3b). From Fig. 3b, the data present as apparent substrate inhibition. In this case, we can envisage that the ‘slow’ reacting species effectively acts as a weak inhibitor relative to the ‘fast’ reacting species, thus presenting as apparent substrate inhibition.
(§3) It should be noted that the species reflected by the third exponential phase has a larger equilibrium constant than the faster reacting species, with a rate of reaction approximately 20-fold slower than the steady-state rate of the enzyme (Fig. S6 ^†). As it represents an insignificant component of the steady-state reaction, we have not analysed this phase any further.
(§4) Stopped-Flow (SF) experiments were performed using a Hi-Tech Scientific KinetAsyst Stopped-Flow System spectrophotometer (TgK Scientific, Bradford on Avon, UK). Both syringe 1 and 2 were washed with ddH2O and SF buffer (18 mM Tris–HCl, 135 mM NaCl, 10% acetonitrile, pH 7.5). 10% acetonitrile was maintained in both syringes at all times to ensure solubility of the substrate. The stop-flow was zeroed and references were taken using SF buffer in each syringe for burst phase kinetics. Purified recombinant AbyU in SEC buffer (20 mM Tris–HCl, 150 mM NaCl, pH 7.5), was diluted to a final concentration of 800 μM AbyU in SF buffer. This solution of AbyU was placed in syringe 1 to obtain references for the single turnover experiments. For the multiple turnover experiments, AbyU was added to syringe 1 at a concentration of 2 μM (diluted in SF buffer). Likewise, substrate 5 was diluted in SF buffer to double the reaction concentration and placed in syringe 2. 50 μL from each syringe was injected into the mixing chamber and measurement immediately commenced. Reactions were observed using a logarithmic timebase over either 1000 s or 10 s. For the 1000 s experiments, the timeframe was split into 15 cycles, each with 200 points, each of which was distributed in a logarithmic manner. This ensured a high number of readings in the first seconds of the experiment. […] This was compounded by the weak affinity of substrate 5 for the plastic components in the SF system, rendering it impossible to precisely replicate the concentration of 5 in the reaction chamber over multiple syringes. To measure the uncatalysed rate of substrate cyclisation, the stop flow was zeroed and references were taken using SF buffer in both syringes. Varying concentrations of substrate 5 were added to syringe 2 and measurements were taken using a linear time base over 10 seconds. All reactions were performed at 20 °C.
(§5) Results were fitted using Graphpad Prism. […]

In series [2] the target is AbyU (Micromonospora maris). The description is as above. Conditions: single turnover, 10 s, 20 °C, pH 7.5, 10% acetonitrile, eqn (2); read-out: Ki from substrate inhibition fit of kobs2 vs [5] (binding affinity for slower reacting species). Type of series: biochemical, Micromonospora maris AB-18-032.
Excerpt: as §1, §2, §3, §4, §5

Series [3] has as its target T1, AbyU. Put plainly: Steady-state kinetics of the AbyU catalysed conversion of 5 to 6 (Michaelis–Menten fit). It counts as biochemical, Micromonospora maris AB-18-032. Here is the method: Fig. 5 Burst phase characterisation of the AbyU catalysed conversion of 5 to 6. (a) Example of the transient observed (blue) in the reaction of 54 μM 5 with 1 μM AbyU, shown on a logarithmic scale with a linear scale shown inset for comparison. The transient is fitted to eqn (3) (black line, see Fig. S9 ^† for fitting analysis). (b) The rate of turnover in each burst phase as a function of the concentration of 5. Data for kburst1 is fitted to a one-step binding model (eqn (4)) and kburst2 is fitted to a two-step binding model (eqn (5)). (c) Steady-state kinetics fitted to the Michaelis–Menten equation (eqn (S1) ^†). […] This is perhaps unsurprising, as the conformationally constricted product must by necessity dissociate from the ‘closed’ active site. Steady-state kinetics reveal the impact that product release has upon the overall rate. […] Stopped-Flow (SF) experiments were performed using a Hi-Tech Scientific KinetAsyst Stopped-Flow System spectrophotometer (TgK Scientific, Bradford on Avon, UK). […] This ensured a high number of readings in the first seconds of the experiment. […] The amplitude of the change in absorbance was converted to concentration using the following measured absorbance coefficient for substrate 5: ε325 nm = 13 200 M^−1 cm^−1 and the following measured absorbance coefficient for product 6: ε325 nm = 1085 M^−1 cm^−1. […]

Series [4] deals with T1, AbyU. Put plainly: Multiple turnover (burst phase) stopped-flow kinetics of the AbyU catalysed conversion of 5 to 6. Type of series: biochemical, Micromonospora maris AB-18-032. Here is the method: To formally identify the rate-limiting step in the AbyU catalysed cycloaddition reaction, a multiple turnover kinetics experiment was undertaken. The stopped-flow transients (Fig. 5a) reveal two distinguishable burst phases when fitted to eqn (3), a derivative of eqn (1), which incorporates a linear phase to account for multiple turnovers in the steady-state.3 [drawing 3]
When the data for kburst1 are fitted to eqn (4), kon and koff can be determined to be 0.88 ± 0.03 μM^−1 s^−1 and 3.4 ± 0.71 s^−1, for substrate binding and dissociation respectively, in this conformation.4 kburst1 = kburst1on[S] + kburst1off
The relationship between the slower burst phase, kburst2 and substrate concentration, in contrast, fits well to, and is highly representative of, a two-step binding interaction (eqn (5) (ref. [32])).5 kburst2 = 1/2(p − q)where:5.1 p = kburst2on1 × [S] + kburst2off1 + kburst2on2 + kburst2off25.2 [drawing 4] 5.3 r = kburst2on1 × [S] × kburst2on2 + kburst2off1 × kburst2off2 + kburst2on1 × [S] × kburst2off2
as §4
Results were fitted using Graphpad Prism. Data obtained before 2 ms was discarded, reflecting the dead-time of the instrument. Data were fit to equations as outlined in the text. The 10 s single turnover kinetic data were fitted to two exponentials with a sloping baseline (eqn (3)). […] To circumvent this, the data between 3 s and 10 s were separately fitted to a straight line to determine the initial rate of k3. In order to fully analyse the change in the reaction rate with respect to the concentration of 5, 3–6 transients at each substrate concentration were taken and the rate and amplitude parameters derived from the fit appropriate for each transient (Fig. S4 and S9 ^†). The background rate of reaction (Fig. S11 ^†) was removed from the steady-state reaction and from the linear portion of k3. The other exponential phases occur too rapidly for the background rate of reaction to have an appreciable influence on the data. […]

A short description of series [5]: Uncatalysed (spontaneous) cyclisation of substrate 5, stopped-flow. Conditions: SF buffer, no enzyme, 10 s, 20 °C, pH 7.5, 10% acetonitrile. It counts as physicochemical. Here is the method: Stopped-Flow (SF) experiments were performed using a Hi-Tech Scientific KinetAsyst Stopped-Flow System spectrophotometer (TgK Scientific, Bradford on Avon, UK). Both syringe 1 and 2 were washed with ddH2O and SF buffer (18 mM Tris–HCl, 135 mM NaCl, 10% acetonitrile, pH 7.5). 10% acetonitrile was maintained in both syringes at all times to ensure solubility of the substrate. The stop-flow was zeroed and references were taken using SF buffer in each syringe for burst phase kinetics. Purified recombinant AbyU in SEC buffer (20 mM Tris–HCl, 150 mM NaCl, pH 7.5), was diluted to a final concentration of 800 μM AbyU in SF buffer. […] This ensured a high number of readings in the first seconds of the experiment. […]
Results were fitted using Graphpad Prism. […] The amplitude of the change in absorbance was converted to concentration using the following measured absorbance coefficient for substrate 5: ε325 nm = 13 200 M^−1 cm^−1 and the following measured absorbance coefficient for product 6: ε325 nm = 1085 M^−1 cm^−1. […] Initial concentrations of substrate 5 were calculated from the absorbance at t = 0, to account for uncatalysed substrate turnover, and the tendency of the substrate to have a weak affinity with the plastic present in the stop-flow apparatus. […] The slope of the line was determined for each substrate concentration and averaged over 3–5 repeats.

[6] abbreviates: burst phase 1, eqn (4), 20 °C, pH 7.5.
The mark [7] stands for this setting: burst phase 2, two-step binding, eqn (5), 20 °C, pH 7.5.

T1 sequence (Z9P124SIT8 1-160 F95Y): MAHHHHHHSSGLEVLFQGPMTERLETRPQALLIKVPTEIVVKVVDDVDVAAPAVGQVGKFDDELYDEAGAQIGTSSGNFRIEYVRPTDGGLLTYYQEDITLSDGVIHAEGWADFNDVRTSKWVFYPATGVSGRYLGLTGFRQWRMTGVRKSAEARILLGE
AbyU (Micromonospora maris), sequence (Z9P124SIT8 1-160 F95Y): as above

One may read the Km as the substrate concentration at which the rate is half of its maximum. For orientation: kcat means the maximal rate divided by the concentration of active sites. For `C=C1OC(=O)C(C(=O)[C@H](C)C[C@H](C)C(=O)/C=C/C=C/C=C/C)=C1OC` [compound 5], in series [1] (binding in ES3 conformation (third phase), 20 °C, pH 7.5), the k3 result was “≈5.7 × 10^−4 ± 3.8 × 10^−5 μM^−1 s^−1”. The “k−3” value in series [1] (dissociation from ES3 conformation (third phase), 20 °C, pH 7.5) is “≈6.9 × 10^−3 ± 1.9 × 10^−3 s^−1”. In addition, the “rate of third exponential phase slower than the steady-state rate of the enzyme” value in series [1] (ratio) is on record as “approximately 20 fold”. Besides, in series [1] (single turnover, 10 s, 20 °C, pH 7.5, 10% acetonitrile, eqn (2), read-out: Km from substrate inhibition fit of kobs2 vs [5] (approximation of binding affinity for faster-reacting conformation(s))), the Km stood at 13.2 ± 3.2 µM. The Ki in series [2] was 54.9 ± 14.5 µM. The “kcat slower than the initial rate of kburst1” value in series [3] (ratio) is “around 230 times”. Also, the kcat in series [3] (steady-state, 20 °C, pH 7.5, 10% acetonitrile) was found to be 0.116 ± 0.005 s⁻¹. In series [4] (20 °C, pH 7.5), the “k5 (cyclisation once substrate is bound)” value was “N.D. (very quick)”. In addition, the Kd in series [4] (apparent binding constant, two-step route, read-out: Kapp = K2 × K4) stood at 1.3 µM. Besides, the Kd in series [4] (binding constant, ES2 conformation, read-out: K2 = k−2/k2) came to 1.97 ± 4.24 µM. For the same compound, the Kd in series [4] (binding constant, ES conformation, read-out: K1 = k−1/k1) was 3.86 ± 0.94 µM. In series [4] (setting [6]), the “k1 (kon, kburst1, substrate binding, one-step)” value is 880000 ± 30000 M⁻¹ s⁻¹; the “k−1 (koff, kburst1, substrate dissociation)” value is 3.4 ± 0.71 s⁻¹ and 3.41 ± 0.71 s⁻¹. In addition, in series [4] (setting [7]), the “k2 (on rate, kburst2, sub-optimal conformation)” value amounted to 360000 ± 460000 M⁻¹ s⁻¹; the “k4 (rearrangement within active site to most productive conformation)” value was found to be 1.37 ± 2.38 s⁻¹; the “k−2 (off rate, kburst2, sub-optimal conformation)” value is 0.71 ± 0.62 s⁻¹. Further, the “k−4” value in series [4] (burst phase 2, two-step binding, reverse rearrangement, 20 °C, pH 7.5) is 0.90 ± 2.29 s⁻¹. Besides, the “K4 (k−4/k4)” value in series [4] (equilibrium constant of rearrangement) is on record as 0.66 ± 2.81. Besides, in series [5], the “kspont (spontaneous cyclisation of 5)” value worked out at 1250 ± 17 M⁻¹ s⁻¹.
